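Cultured in 96-well plates, cells were exposed to test compound for 48 hours across five concentrations. At the GI50, growth is halved.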 The source made the active and inactive calls. Cut-off read from the data, not from the text of the source: active = GI50 up to about 1.1 µM and inactive = higher.
Columns and labels:
Test in all cases: DTP human tumour cell line panel, 48 h
DMS-114 = test system: DMS-114
A498 = test system: A498
UO-31 = test system: UO-31
HOP-18 = test system: HOP-18
MOLT-4 = test system: MOLT-4
M14 = test system: M14
A549 = test system: A549
HCT-15 = test system: HCT-15
786-0 = test system: 786-0
HCT-116 = test system: HCT-116
HOP-92 = test system: HOP-92
SK-MEL-28 = test system: SK-MEL-28
SK-MEL-5 = test system: SK-MEL-5
IGROV-1 = test system: IGROV-1
UACC-257 = test system: UACC-257
SW-620 = test system: SW-620
NCI-H23 = test system: NCI-H23
HT-29 = test system: HT-29
NCI-H460 = test system: NCI-H460
ACHN = test system: ACHN
OVCAR-8 = test system: OVCAR-8
K562 = test system: K562
SNB-19 = test system: SNB-19
COLO 205 = test system: COLO 205
TK-10 = test system: TK-10
U-251 = test system: U-251
OVCAR-5 = test system: OVCAR-5
UACC-62 = test system: UACC-62
SNB-78 = test system: SNB-78
OVCAR-4 = test system: OVCAR-4
KM12 = test system: KM12
LXFL 529 = test system: LXFL 529
SK-OV-3 = test system: SK-OV-3
EKVX = test system: EKVX
RPMI-8226 = test system: RPMI-8226
KM-20L2 = test system: KM-20L2
DLD-1 = test system: DLD-1
CAKI-1 = test system: CAKI-1
SF-268 = test system: SF-268
DMS-273 = test system: DMS-273
SR = test system: SR
M19-MEL = test system: M19-MEL
HOP-62 = test system: HOP-62
RXF 393 = test system: RXF 393
HCC 2998 = test system: HCC 2998
SNB-75 = test system: SNB-75
SF-295 = test system: SF-295
CCRF-CEM = test system: CCRF-CEM
Malme-3M = test system: Malme-3M
LOX IMVI = test system: LOX IMVI
OVCAR-3 = test system: OVCAR-3
SK-MEL-2 = test system: SK-MEL-2
SF-539 = test system: SF-539
NCI-H226 = test system: NCI-H226
SN12C = test system: SN12C
XF498 = test system: XF498
NCI-H522 = test system: NCI-H522
HL-60 = test system: HL-60
MCF7 = test system: MCF7
NCI/ADR-RES = test system: NCI/ADR-RES

`c1ccc2c(c1)[nH]c1c2nc2ccccn21` was tested, and the GI50 (DMS-114) was > 100 µM (inactive), the GI50 (A498) was > 100 µM (inactive) and the GI50 (UO-31) was > 100 µM (inactive). For the same compound, the GI50 (HOP-18) was > 100 µM (inactive), the GI50 (MOLT-4) was > 100 µM (inactive) and the GI50 (M14) was > 100 µM (inactive). The GI50 (A549) was > 100 µM (inactive), the GI50 (HCT-15) was over 100 µM and the GI50 (786-0) was > 100 µM (inactive). For the same compound, the GI50 (HCT-116) was > 100 µM (inactive), the GI50 (HOP-92) was > 100 µM (inactive) and the GI50 (SK-MEL-28) was > 100 µM (inactive). The GI50 (SK-MEL-5) was > 100 µM (inactive), the GI50 (IGROV-1) was > 100 µM (inactive) and the GI50 (UACC-257) was > 100 µM (inactive). The GI50 (SW-620) was > 100 µM (inactive), the GI50 (NCI-H23) was > 100 µM (inactive) and the GI50 (HT-29) was > 100 µM (inactive). For the same compound, the GI50 (NCI-H460) was > 100 µM (inactive), the GI50 (ACHN) was > 100 µM (inactive) and the GI50 (OVCAR-8) was > 100 µM (inactive). For the same compound, the GI50 (K562) was > 100 µM (inactive), the GI50 (SNB-19) was > 100 µM (inactive) and the GI50 (COLO 205) was > 100 µM (inactive). For the same compound, the GI50 (TK-10) was 69 µM (inactive), the GI50 (U-251) was > 100 µM (inactive) and the GI50 (OVCAR-5) was > 100 µM (inactive). For the same compound, the GI50 (UACC-62) was > 100 µM (inactive), the GI50 (SNB-78) was > 100 µM (inactive) and the GI50 (OVCAR-4) was > 100 µM (inactive). For the same compound, the GI50 (KM12) was > 100 µM (inactive), the GI50 (LXFL 529) was > 100 µM (inactive) and the GI50 (SK-OV-3) was > 100 µM (inactive). The GI50 (EKVX) was > 100 µM (inactive), the GI50 (RPMI-8226) was > 100 µM (inactive) and the GI50 (KM-20L2) was > 100 µM (inactive). For the same compound, the GI50 (DLD-1) was > 100 µM (inactive), the GI50 (CAKI-1) was > 100 µM (inactive) and the GI50 (SF-268) was > 100 µM (inactive). The GI50 (DMS-273) was > 100 µM (inactive).
For `CC(C)(C)[C@H]1CO[C@]2(c3ccccc3)[C@@H]3C[C@@H]3C(=O)N12`, the GI50 (DMS-114) was > 100 µM (inactive), the GI50 (SR) was > 100 µM (inactive) and the GI50 (UO-31) was > 100 µM (inactive). The GI50 (M14) was > 100 µM (inactive), the GI50 (A549) was > 100 µM (inactive) and the GI50 (M19-MEL) was > 100 µM (inactive). For the same compound, the GI50 (HOP-62) was > 100 µM (inactive), the GI50 (HCT-15) was over 100 µM and the GI50 (RXF 393) was > 100 µM (inactive). For the same compound, the GI50 (HCC 2998) was > 100 µM (inactive), the GI50 (786-0) was > 100 µM (inactive) and the GI50 (SNB-75) was > 100 µM (inactive). The GI50 (HOP-92) was > 100 µM (inactive), the GI50 (SK-MEL-28) was > 100 µM (inactive) and the GI50 (SK-MEL-5) was > 100 µM (inactive). The GI50 (IGROV-1) was > 100 µM (inactive), the GI50 (UACC-257) was > 100 µM (inactive) and the GI50 (SW-620) was > 100 µM (inactive). For the same compound, the GI50 (SF-295) was > 100 µM (inactive), the GI50 (CCRF-CEM) was > 10 µM (inactive) and the GI50 (Malme-3M) was > 100 µM (inactive). For the same compound, the GI50 (NCI-H23) was > 100 µM (inactive), the GI50 (HT-29) was > 100 µM (inactive) and the GI50 (LOX IMVI) was > 100 µM (inactive). For the same compound, the GI50 (NCI-H460) was > 100 µM (inactive), the GI50 (ACHN) was > 100 µM (inactive) and the GI50 (OVCAR-8) was > 100 µM (inactive). The GI50 (OVCAR-3) was > 100 µM (inactive), the GI50 (K562) was > 10 µM (inactive) and the GI50 (SNB-19) was > 100 µM (inactive). For the same compound, the GI50 (COLO 205) was > 100 µM (inactive), the GI50 (TK-10) was > 100 µM (inactive) and the GI50 (U-251) was > 100 µM (inactive). For the same compound, the GI50 (OVCAR-5) was > 100 µM (inactive), the GI50 (UACC-62) was > 100 µM (inactive) and the GI50 (OVCAR-4) was > 100 µM (inactive). The GI50 (SK-MEL-2) was > 100 µM (inactive), the GI50 (KM12) was > 100 µM (inactive) and the GI50 (LXFL 529) was > 100 µM (inactive). For the same compound, the GI50 (SK-OV-3) was > 100 µM (inactive), the GI50 (SF-539) was > 100 µM (inactive) and the GI50 (EKVX) was > 100 µM (inactive). The GI50 (NCI-H226) was > 100 µM (inactive), the GI50 (RPMI-8226) was > 100 µM (inactive) and the GI50 (KM-20L2) was > 100 µM (inactive). The GI50 (DLD-1) was > 100 µM (inactive), the GI50 (SN12C) was > 100 µM (inactive) and the GI50 (XF498) was > 100 µM (inactive). The GI50 (CAKI-1) was > 100 µM (inactive), the GI50 (NCI-H522) was > 100 µM (inactive) and the GI50 (SF-268) was > 100 µM (inactive). The GI50 (DMS-273) was > 100 µM (inactive) and the GI50 (HL-60) was > 100 µM (inactive).
`O=C1C=C2SC3C[C@@]24CC1(O)[N+]1=c2c4c(c(O)c4c2=C(C=N4)CC1)N3` was tested, and the GI50 (MCF7) was 0.278 µM (active), the GI50 (DMS-114) was 0.219 µM (active) and the GI50 (A498) was 1.88 µM (inactive). For the same compound, the GI50 (UO-31) was 1.89 µM (inactive), the GI50 (HOP-18) was 2.43 µM (inactive) and the GI50 (MOLT-4) was 0.268 µM (active). For the same compound, the GI50 (A549) was 2 µM (inactive), the GI50 (M19-MEL) was 0.285 µM (active) and the GI50 (HOP-62) was 1.82 µM (inactive). For the same compound, the GI50 (HCT-15) was 1.64 µM, the GI50 (RXF 393) was 1.35 µM (inactive) and the GI50 (SNB-75) was 1.83 µM (inactive). The GI50 (HCT-116) was 0.217 µM (active), the GI50 (HOP-92) was 1.35 µM (inactive) and the GI50 (SK-MEL-28) was 1.64 µM (inactive). For the same compound, the GI50 (SK-MEL-5) was 1.5 µM (inactive), the GI50 (IGROV-1) was 1.57 µM (inactive) and the GI50 (UACC-257) was 1.16 µM (inactive). For the same compound, the GI50 (SW-620) was 0.33 µM (active), the GI50 (SF-295) was 1.58 µM (inactive) and the GI50 (CCRF-CEM) was 0.321 µM (active). The GI50 (NCI-H23) was 1.3 µM (inactive), the GI50 (HT-29) was 0.299 µM (active) and the GI50 (LOX IMVI) was 0.546 µM (active). The GI50 (NCI-H460) was 2.07 µM (inactive), the GI50 (NCI/ADR-RES) was 0.887 µM (active) and the GI50 (OVCAR-8) was 0.33 µM (active). The GI50 (OVCAR-3) was 0.206 µM (active), the GI50 (K562) was 0.64 µM (active) and the GI50 (SNB-19) was 1.74 µM (inactive). The GI50 (COLO 205) was 0.176 µM (active), the GI50 (U-251) was 1.75 µM (inactive) and the GI50 (OVCAR-5) was 2.33 µM (inactive). For the same compound, the GI50 (UACC-62) was 0.533 µM (active), the GI50 (SNB-78) was 1.61 µM (inactive) and the GI50 (OVCAR-4) was 1.26 µM (inactive). The GI50 (SK-MEL-2) was 1.44 µM (inactive), the GI50 (KM12) was 1.53 µM (inactive) and the GI50 (SK-OV-3) was 1.95 µM (inactive). The GI50 (SF-539) was 1.51 µM (inactive), the GI50 (EKVX) was 4.13 µM (inactive) and the GI50 (NCI-H226) was 1.78 µM (inactive). The GI50 (RPMI-8226) was 0.457 µM (active), the GI50 (KM-20L2) was 0.313 µM (active) and the GI50 (DLD-1) was 1.11 µM (active). For the same compound, the GI50 (SN12C) was 1.22 µM (inactive), the GI50 (XF498) was 1.85 µM (inactive) and the GI50 (CAKI-1) was 2.24 µM (inactive). For the same compound, the GI50 (NCI-H522) was 0.296 µM (active), the GI50 (SF-268) was 1.01 µM (active) and the GI50 (DMS-273) was 1.42 µM (inactive). The GI50 (HL-60) was 0.217 µM (active).

— ChEMBL document CHEMBL1201862, “PubChem BioAssay data set” (2004)
